Experimental data reported in the supplement of paper PMC4932681.

Legend:
Experiment in all cases: viability inhibition at highest dose (% inhibition); higher = more growth inhibition
BT-474 = conditions: 72 h
Description: (§1)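 Percent inhibition of viability (CellTiter-Glo, 72 h) at the highest tested concentration (D5), normalised to DMSO (0%) and 100 µM benzethonium chloride (100%). Resistant lines and the 'in 1µM tamoxifen' arms were tested in 1 µM 4-OH-tamoxifen.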

MCF-7 = conditions: 72 h
Description: as §1

BT-474 Tam2 = conditions: 4-OH-tamoxifen in medium 1 µM; 72 h
Description: as §1

ZR-75-1 Tam1 = conditions: 4-OH-tamoxifen in medium 1 µM; 72 h
Description: as §1

T-47D Tam1 = conditions: 4-OH-tamoxifen in medium 1 µM; 72 h
Description: as §1

BT-474 Tam1 = conditions: 4-OH-tamoxifen in medium 1 µM; 72 h
Description: as §1

T-47D Tam2 = conditions: 4-OH-tamoxifen in medium 1 µM; 72 h
Description: as §1

T-47D = conditions: 72 h
Description: as §1

ZR-75-1 Tam2 = conditions: 4-OH-tamoxifen in medium 1 µM; 72 h
Description: as §1

MCF-7 Tam1 = conditions: 4-OH-tamoxifen in medium 1 µM; 72 h
Description: as §1

ZR-75-1 = conditions: 72 h
Description: as §1

| Compound | viability inhibition at highest dose (BT-474; 4-OH-tamoxifen in medium 0 µM) | viability inhibition at highest dose (BT-474; 4-OH-tamoxifen in medium 1 µM) | viability inhibition at highest dose (MCF-7; 4-OH-tamoxifen in medium 0 µM) | viability inhibition at highest dose (MCF-7; 4-OH-tamoxifen in medium 1 µM) | viability inhibition at highest dose (BT-474 Tam2) | viability inhibition at highest dose (ZR-75-1 Tam1) | viability inhibition at highest dose (T-47D Tam1) | viability inhibition at highest dose (BT-474 Tam1) | viability inhibition at highest dose (T-47D Tam2) | viability inhibition at highest dose (T-47D; 4-OH-tamoxifen in medium 0 µM) | viability inhibition at highest dose (T-47D; 4-OH-tamoxifen in medium 1 µM) | viability inhibition at highest dose (ZR-75-1 Tam2) | viability inhibition at highest dose (MCF-7 Tam1) | viability inhibition at highest dose (ZR-75-1; 4-OH-tamoxifen in medium 0 µM) | viability inhibition at highest dose (ZR-75-1; 4-OH-tamoxifen in medium 1 µM) |
| --- | --- | --- | --- | --- | --- | --- | --- | --- | --- | --- | --- | --- | --- | --- | --- |
| O=C(O)CC[C@H]1CC[C@@](c2cc(F)ccc2F)(S(=O)(=O)c2ccc(Cl)cc2)CC1 [MK-0752] (drug 1000 nM) | -9.96 | -12.2 | -24.6 | 1.59 | 2.64 | -3.02 | 2.67 | -7.32 | 4.08 | -16.2 | -1.71 | -2.73 | -0.531 | -11.9 | -13.3 |
| C=CCn1c(=O)c2cnc(Nc3ccc(N4CCN(C)CC4)cc3)nc2n1-c1cccc(C(C)(C)O)n1 [MK-1775] (drug 10000 nM) | 25 | 44 | 51.7 | 35.9 | 30.6 | 1.62 | 39.6 | 40.9 | 38.8 | 22.4 | 16.9 | 1.58 | 6.3 | 21.9 | 14.6 |
| NC1(c2ccc(-c3nc4ccn5c(=O)[nH]nc5c4cc3-c3ccccc3)cc2)CCC1 [MK-2206] (drug 1000 nM) | 27.6 | 50.8 | 35.1 | 44.8 | 21.9 | 60.8 | 44.5 | 47 | 49.9 | 52.4 | 36.6 | 63.1 | 29.1 | 57.1 | 51.6 |
| NC(=O)c1cccc2cn(-c3ccc([C@@H]4CCCNC4)cc3)nc12 [MK-4827] (drug 10000 nM) | -13.3 | -7.59 | 12.1 | 16.4 | 21.1 | 2.04 | 1.65 | 42.3 | 14.2 | 20.9 | -1.38 | 9.71 | -3.14 | 11.6 | 8.9 |
| Cc1ccc(NC(=O)c2ccc(CN3CCN(C)CC3)cc2)cc1Nc1nc(-c2cccnc2)cs1 [Masitinib] (drug 10000 nM) | 21.2 | 71.6 | 39.5 | 40.7 | 87 | 18.2 | 34.5 | 93.1 | 40.7 | 42 | 57.1 | 32.8 | 26.5 | 9.35 | 20.3 |
| S=c1[nH]cnc2nc[nH]c12 [Mercaptopurine] (drug 10000 nM) | 3.7 | 13.8 | 18.1 | 27.8 | 6.87 | 35.5 | 11.9 | 3.48 | 12.1 | 3.17 | -0.759 | 18 | 11.9 | 39.5 | 6.71 |
